Values joined by “and” are separate entries in the source; they are usually repeats but may differ in a detail not shown here. Equal values may be shown once. Read-outs that look alike come from different tables or passages of the source. Numbered stars: 1 amine (or outer) side, 2 acyl side, 3 side chain; on linkers, the order of the positions; unused ones are H or OH. Bridge positions count the residues as written; N and C are the ends. Square brackets hold non-standard residues; d marks the D form. Peptide text beside a SMILES is read from it. I, II: the chains in the order shown. Actinocin(9to1) = Cc1c2oc3c(C)ccc(C(=O)[*:1])c3nc-2c(C(=O)[*:2])c(N)c1=O; NMeV = CN[C@H](C(=O)O)C(C)C; Sar = CNCC(=O)O
Tests used:
CCRF-CEM cells [1] = assay: Cytotoxicity / growth inhibition of CCRF-CEM leukemic cells
DC-3F/ADII cells [2] = test system: DC-3F/ADII cells
CCRF-CEM cells [3] = assay: Intracellular accumulation of [3H]vinblastine in CCRF-CEM cells; assay type: cell-based, human; settings: 30 μM
Description: (§1) *Cells were preloaded with [^3 H]
(§2) times (or without wash) with 100 ml cold medium to remove extracellular
(§3) with or without a reverse prenyl compound or an MDRreversing agent. Cells
(§4) were then separated from radioactive medium by microfuge oillayer method.
(§5) Extracellular space counts carried down # by cells (^3 HInulin space
(§6) were subtracted from the total radioactive counts.

CCRF-CEM cells [4] = test system: CCRF-CEM cells
CCRF-CEM/VLB-100 cells = assay: Intracellular accumulation of [3H]vinblastine in CCRF-CEM/VLB-100 cells; assay type: cell-based, human; settings: 30 μM
Description: as §1, §2, §3, §4, §5, §6

DC-3F hamster lung cells [5] = settings: dc-3f cells
DC-3F hamster lung cells [6] = assay: Cytotoxicity toward DC-3F hamster lung cells
CCRF-CEM/VBL100 cells [7] = test system: CCRF-CEM/VBL100 cells
CCRF-CEM/VM-1 cells = assay: Cytotoxicity toward VM-26-resistant CCRF-CEM/VM-1 cells (mutated Topo II gene); assay type: cell-based, human
CCRF-CEM/VBL100 cells [8] = assay: cells; settings: Homo sapiens
DC-3F/ADX cells = assay: Cytotoxicity toward DC-3F/ADX cells; assay type: cell-based, hamster; settings: for IC50: DC3F/ADX, DC-3F/ADX; for (C)/(A): IC50 ratio DC-3F/ADX to DC-3F, * collaterally sensitive
DC-3F/ADII cells [9] = assay: cells; settings: Mesocricetus auratus, DC3F
[10] = Homo sapiens, Table 5A, single determinations
[11] = Homo sapiens, read-out: IC50 of reversing agent, Table 6B, CCRF-CEM
[12] = Table 5A, CCRF-CEM/VLB, * collaterally sensitive vs parent
[13] = read-out: IC50 of reversing agent, Table 6B, CCRF-CEM/VBL
[14] = Homo sapiens, CCRF-CEM, Table 5A, CCRF-CEM/VM-1, read-out: IC50
[15] = Homo sapiens, read-out: IC50, mean ± spread, Table 5A, CCRF-CEM, mean
[16] = Table 5A, single determinations
[17] = read-out: IC50, mean ± spread, Table 5A, CCRF-CEM/VLB, mean
[18] = Homo sapiens, Table 6, CCRF-CEM
[19] = Homo sapiens, CCRF-CEM, Table 6B, CCRF-CEM/VM-1, read-out: IC50 of reversing agent
[20] = IC50 ratio DC-3F/ADII to DC-3F, * collaterally sensitive
[21] = Mesocricetus auratus, DC3F, read-out: IC50 (A), mean ± spread, mean of the determinations
[22] = Mesocricetus auratus, DC3F, read-out: IC50 (A), single determinations
[23] = read-out: IC50 (A), single determinations

Structure (SMILES)	[3H]vinblastine accumulation (CCRF-CEM cells [3]; washed)	[3H]vinblastine accumulation (CCRF-CEM cells [3]; without wash)	[3H]vinblastine accumulation (CCRF-CEM/VLB-100 cells; washed)	[3H]vinblastine accumulation (CCRF-CEM/VLB-100 cells; without wash)	IC50 (CCRF-CEM cells [1]; [10])	IC50 (CCRF-CEM/VBL100 cells [8]; [12])	IC50 (CCRF-CEM/VM-1 cells; [14])	IC50 (CCRF-CEM cells [1]; [15])	IC50 (CCRF-CEM/VBL100 cells [8]; [17])	IC50 (CCRF-CEM cells [1]; [18])	IC50 (CCRF-CEM/VBL100 cells [8]; Table 6, CCRF-CEM/VBL)	other results
C=CCC12CC3c4nc5ccccc5c(=O)n4C(C)C(=O)N3C1N(C(C)=O)c1ccccc12 (stereo not shown) [5-N-Ac"Allyl" ardeemin, "Allyl" 5-N-acetylardeemin]	28.88 fmole/10^3 cells	33.35 fmole/10^3 cells	6.18 fmole/10^3 cells	27.21 fmole/10^3 cells								IC50 (CCRF-CEM cells [1]; Homo sapiens, human leukemic CCRF-CEM cells): 53.3 µM; IC50 (DC-3F/ADII cells [2]; dc-3f/adii cells): 5.21 µM; IC90 (DC-3F/ADII cells [2]; dc-3f/adii cells): 34.7 µM; IC50 (CCRF-CEM cells [4]): 53.3 µM; IC90 (CCRF-CEM cells [4]): 888 µM; IC80 (DC-3F hamster lung cells [5]): 17.4 µM; IC90 (DC-3F hamster lung cells [5]): 56.2 µM; IC50 (DC-3F hamster lung cells [6]; Mesocricetus auratus, DC3F, relative cytotoxicity, DC-3F): 17.4 µM; IC50 (CCRF-CEM/VBL100 cells [7]; ccrf-cem/vbl100 cells): 35.8 µM; IC90 (CCRF-CEM/VBL100 cells [7]; ccrf-cem/vbl100 cells): 81.1 µM; IC50 (CCRF-CEM/VM-1 cells; ccrf-cem/vm-1 cells): 45 µM; IC90 (CCRF-CEM/VM-1 cells; ccrf-cem/vm-1 cells): 916 µM
C=CC(C)(C)C12CC3c4nc5ccccc5c(=O)n4C(C)C(=O)N3C1N(C(=O)C(F)(F)F)c1ccccc12 (stereo not shown) [5N F3 -Ac-Ard 3F, 5N-Tri-F Acetyl Ardeemin]	28.44 fmole/10^3 cells	34.01 fmole/10^3 cells	7.28 fmole/10^3 cells	32.68 fmole/10^3 cells	37.5 µM	17.2 µM	52.6 µM					IC50 (CCRF-CEM cells [1]; [11]): 37.6 µM; IC50 (CCRF-CEM/VBL100 cells [8]; [13]): 17.2 µM
C=CC(C)(C)C12CC3C(=O)NCC(=O)N3C1N(C(C)=O)c1ccccc12 (stereo not shown) [5N-Ac-8-desMe-DKP, 5N-acetyl diketopiperazine]					21.4 µM			22.1 ± 0.7 µM	19.9 ± 13 µM			IC50 (CCRF-CEM cells [1]; [16]): 22.7 µM; IC50 (CCRF-CEM/VM-1 cells; Homo sapiens, CCRF-CEM): 35.8 µM
C=CC(C)(C)C12CC3C(=O)NC(C)C(=O)N3C1N(C(C)=O)c1ccccc12 (stereo not shown) [5N-Ac-DKP 14(E), N-acetyldiketopiperazine]	29.54 fmole/10^3 cells	35.08 fmole/10^3 cells	3.59 fmole/10^3 cells	12.88 fmole/10^3 cells			32.4 µM	397 ± 171 µM	344 ± 197 µM	225 µM	541 µM	
C=CC(C)(C)C12CC3C(=O)NC(C)C(=O)N3C1N(C(=O)C(F)(F)F)c1ccccc12 (stereo not shown) [5N-F3 -Ac-DKP 14F(E), 5N-trifluoroacetyl diketopiperazine]	28.75 fmole/10^3 cells	33.34 fmole/10^3 cells	5.77 fmole/10^3 cells	23.34 fmole/10^3 cells	32.8 µM	24.6 µM	41 µM	32.2 ± 0.7 µM				IC50 (CCRF-CEM cells [1]; [11]): 32.8 µM; IC50 (CCRF-CEM cells [1]; [16]): 31.5 µM; IC50 (CCRF-CEM/VBL100 cells [8]; [13]): 24.8 µM; IC50 (CCRF-CEM/VM-1 cells; [19]): 40.9 µM
C=CC(C)(C)C12CC3C(=O)NCC(=O)N3C1N(C=O)c1ccccc12 (stereo not shown) [5N-formyl-8-desMe-DKP]					200 µM	372 µM						
C=CC(C)(C)C12CC3c4nc5ccccc5c(=O)n4CC(=O)N3C1Nc1ccccc12 (stereo not shown) [8-Desmethyl-Ardeemin]												IC50 (CCRF-CEM cells [1]; [11]): 14.3 µM; (B)/(A) (DC-3F/ADII cells [2]; [20]): 3.5 X; IC50 (DC-3F/ADX cells): 4.7 µM; (C)/(A) (DC-3F/ADX cells): 0.49 X; IC50 (CCRF-CEM/VBL100 cells [8]; [13]): 18.8 µM; IC50 (DC-3F/ADII cells [9]; read-out: IC50 (B)): 26.5 µM; IC50 (DC-3F hamster lung cells [6]; [21]): 9.58 ± 1.29 µM; IC50 (DC-3F hamster lung cells [6]; [22]): 10.9 µM; IC50 (DC-3F hamster lung cells [6]; [23]): 8.29 µM; IC50 (CCRF-CEM/VM-1 cells; [19]): 18.1 µM
Cc1c2oc3c(C)ccc(C(=O)N[C@@H]4C(=O)N[C@H](C(C)C)C(=O)N5CCC[C@H]5C(=O)N(C)CC(=O)N(C)[C@@H](C(C)C)C(=O)O[C@@H]4C)c3nc-2c(C(=O)N[C@@H]2C(=O)N[C@H](C(C)C)C(=O)N3CCC[C@H]3C(=O)N(C)CC(=O)N(C)[C@@H](C(C)C)C(=O)O[C@@H]2C)c(N)c1=O [Actinomycin D, reference compound] (I: T[dV]P[Sar][NMeV] / II: T[dV]P[Sar][NMeV]; ester I:1-I:C, II:1-II:C; linker I:N-II:N via Actinocin(9to1))												(B)/(A), resistance in words (DC-3F/ADII cells [2]): Resistant; (B)/(A) (DC-3F/ADII cells [2]; [20]): 349.6 X; (C)/(A), resistance in words (DC-3F/ADX cells): Very Resistant; IC50 (DC-3F/ADX cells): 1.23 µM; (C)/(A) (DC-3F/ADX cells): 4738.5 X; IC50 (DC-3F/ADII cells [9]; read-out: IC50 (B), DC-3F/ADII): 0.0909 µM; IC50 (DC-3F hamster lung cells [6]; [21]): 0.00026 ± 5e-05 µM; IC50 (DC-3F hamster lung cells [6]; [22]): 0.00021 µM; IC50 (DC-3F hamster lung cells [6]; [23]): 0.00031 µM
C=CC(C)(C)C12CC3C(=O)NCC(=O)N3C1Nc1ccccc12 (stereo not shown) [Desmethyl-DKP]												(B)/(A) (DC-3F/ADII cells [2]): 1.3 X; IC50 (DC-3F/ADX cells): 199 µM; (C)/(A) (DC-3F/ADX cells): 1.5 X; IC50 (DC-3F/ADII cells [9]; read-out: IC50 (B)): 103 µM; IC50 (DC-3F hamster lung cells [6]; [21]): 131 ± 14.7 µM; IC50 (DC-3F hamster lung cells [6]; [22]): 116 µM; IC50 (DC-3F hamster lung cells [6]; [23]): 145 µM
C=CC(C)(C)C12CC3C(=O)NC(C)C(=O)N3C1Nc1ccccc12 (stereo not shown) [Diketopiperazine 14(B), Diketopiperazine]	28.51 fmole/10^3 cells	35.84 fmole/10^3 cells	3.33 fmole/10^3 cells	10.81 fmole/10^3 cells	143 µM			132 ± 11.5 µM	94.6 ± 40.8 µM	148 µM	147 µM	IC50 (CCRF-CEM cells [1]; [11]): 143 µM; IC50 (CCRF-CEM cells [1]; Table 5A, single determinations, listed as DKP 14(B)): 120 µM; IC50 (CCRF-CEM/VBL100 cells [8]; [13]): 135 µM; IC50 (CCRF-CEM/VM-1 cells; Homo sapiens, CCRF-CEM): 178 µM; IC50 (CCRF-CEM/VM-1 cells; Homo sapiens, CCRF-CEM, read-out: IC50 of reversing agent): 178 µM
C=CC(C)(C)C12CC3C(=O)N(C(C)=O)C(C)C(=O)N3C1N(C(C)=O)c1ccccc12 (stereo not shown) [Imide Di-Ac-DKP Amide 14(D), imide diacetate diketopiperazine]	28.36 fmole/10^3 cells	34.54 fmole/10^3 cells	4.01 fmole/10^3 cells	15.92 fmole/10^3 cells	103 µM	51.4 µM	81.4 µM	83.4 ± 23.4 µM	54.7 ± 3.3 µM	62.5 µM	37.1 µM	IC50 (CCRF-CEM cells [1]; [16]): 64 µM; IC50 (CCRF-CEM/VBL100 cells [7]; [12]): 58 µM; IC50 (CCRF-CEM/VM-1 cells; Homo sapiens, CCRF-CEM, Table 5A, CCRF-CEM/VM-1, mean, read-out: IC50, mean ± spread): 85.2 ± 4 µM; IC50 (CCRF-CEM/VM-1 cells; Table 5A, CCRF-CEM/VM-1, read-out: IC50): 89 µM
C=CC(C)(C)C12CC3C(=O)N(C(C)=O)C(C)C(=O)N3C1Nc1ccccc12 (stereo not shown) [Imide-Ac-DKP 14(A), imide acetate diketopiperazine]	30.18 fmole/10^3 cells	34.87 fmole/10^3 cells	4.52 fmole/10^3 cells	18.93 fmole/10^3 cells	48.1 µM	39.7 µM	50 µM	61 ± 13.1 µM	38 ± 1.8 µM	48.1 µM	39.7 µM	IC50 (CCRF-CEM cells [1]; [16]): 47.9 µM and 87 µM; IC50 (CCRF-CEM/VBL100 cells [7]; [12]): 36.2 µM
C=CC(C)(C)C12CC3C(=O)N(C(=O)OC(C)(C)C)C(C)C(=O)N3C1Nc1ccccc12 (stereo not shown) [Imide-BOC-DKP 14(C), imide-BOC diketopiperazine]	30.29 fmole/10^3 cells	35.56 fmole/10^3 cells	6.10 fmole/10^3 cells	25.44 fmole/10^3 cells		65.4 µM	205 µM	204 ± 116 µM	92.9 ± 27.3 µM	88.7 µM	65.4 µM	IC50 (CCRF-CEM/VBL100 cells [7]; [12]): 120 µM
COc1cc(NS(C)(=O)=O)ccc1Nc1c2ccccc2nc2ccccc12 [M-AMSA, reference compound]												IC50 (DC-3F/ADII cells [2]; dc-3f/adii cells): 0.032 µM; IC50 (CCRF-CEM cells [4]): 0.184 µM; IC50 (CCRF-CEM/VBL100 cells [7]; ccrf-cem/vbl100 cells): 0.656 µM; IC50 (CCRF-CEM/VM-1 cells; ccrf-cem/vm-1 cells): 2.55 µM

Source: patent US6147076A, “Analogues of N-acetylardeemin, method of preparation and uses thereof” (priority 1996, dated 2000)
